Data set [1] relates to SARS-CoV-2. The data set is described as follows: SARS-CoV-2 replication in Caco-2 cells, viral titer in the medium by plaque assay. As to conditions: for antiviral activity in SARS-CoV-2 infection compared with compound 1 / IC50: Caco-2, MOI = 0.1, 72 h; for antiviral activity in SARS-CoV-2 infection compared with compound 1 / reduction of viral yield: plaque assay; for IC50: viral titer in medium by plaque assay, read-out: IC50, inhibition of SARS-CoV-2 replication; for reduction of viral yield: MOI = 0.1, 72 h. The format is cell-based. Here is the method: (§1) NHBE (1.5 × 10^5 cells), Calu-3 (5 × 10^5 cells), or Caco-2 cells (2 × 10^5 cells) were seeded in one well of 12-well plates. Cells were washed with FBS-free medium before viral infection. SARS-CoV-2 was diluted in 250 µL (per well) medium and added to the above cells. Viral infection was incubated on a rocker for 45 min at 37°C. Cells were washed with fresh medium, and medium containing 10% FBS was added.
(§2) Vero E6-hACE2 cells were seeded in 6- or 12-well plates. When cell confluence reached 100%, cells were washed with FBS-free medium and infected with medium containing serially diluted SARS-CoV-2. After infection, the medium was removed, and overlay medium containing FBS-free 1× DMEM and 1% low-melting point agarose was added. At 72 h post-infection, cells were fixed with 4% paraformaldehyde (PFA) overnight and stained with 0.2% crystal violet. Plaques were counted on a lightbox.
(§3) Caco-2, NHBE, Calu-3, and Vero E6-hACE2 cells were pre-treated with compound 1, 6, or 10 and infected with SARS-CoV-2 (MOI = 0.1 for Caco-2, NHBE, and Calu-3; MOI = 0.001 for Vero E6-hACE2). Compounds were added daily during viral infection until the end of the experiments (72 h for Caco-2 and Calu-3, 48 h for NHBE, and 24 h for Vero E6-hACE2), with DMSO used as a control. Viral titer in the medium was determined by plaque assay. Cytotoxicity assay was performed for uninfected Caco-2, NHBE, Calu-3, and Vero E6-hACE2 cells with the same treatment schedule as that of viral replication assay. Cytotoxicity was determined with an XTT assay kit (Roche), according to the manufacturer’s instructions. The percentage of inhibition was normalized to DMSO control. IC50, IC90, and CC50 were calculated with GraphPad Prism software.

For the next data set, the system named is Caco-2 cells. Description: Cytotoxicity, XTT assay, uninfected Caco-2 cells. As to conditions: uninfected Caco-2, XTT assay, 72 h; read-out: CC50, cell viability. The class given is cell-based, human. How it is done:
as §3
(In general: Tetrazolium assays rely on reduction of a dye to a coloured formazan, in cell work by metabolically active cells.)

Data set [2] concerns SARS-CoV-2. Description: SARS-CoV-2 replication (plaque assay) and cytotoxicity (XTT) in Calu-3 cells. The format is cell-based. As to conditions: Calu-3, MOI = 0.1, 72 h. Here is the method: as §3
In another data set the test system is IFN-β promoter. The data set is described as follows: IFN-β induction by Sendai virus, luciferase reporter assay in 293T cells. The class given is cell-based, human. As to conditions: SeV infection; for IFN induction compared with compound 1, reporter assay: 293T cells. Here is the method: (§4) HEK293T cells in 24-well plates (~50% cell density) were transfected with a reporter plasmid cocktail containing 50 ng luciferase reporter plasmid (ISRE-luc, IFN-β-luc, or NF-κB), 5 ng TK-renilla luciferase reporter (control vector), and the indicated expression plasmids by calcium phosphate precipitation. Whole cell lysates (WCLs) were prepared at 24–30 h post-transfection and used for dual luciferase assay according to the manufacturer’s instruction (Promega).
In general terms: A reporter such as luciferase makes a cellular process visible.

For data set [3], the target named is T1, CTPS1 (Homo sapiens, UniProt P17812).
T1 construct: expressed in transfected cells; host or cells: 293T cells expressing FLAG-CTPS1
T1 sequence (P17812 1-591): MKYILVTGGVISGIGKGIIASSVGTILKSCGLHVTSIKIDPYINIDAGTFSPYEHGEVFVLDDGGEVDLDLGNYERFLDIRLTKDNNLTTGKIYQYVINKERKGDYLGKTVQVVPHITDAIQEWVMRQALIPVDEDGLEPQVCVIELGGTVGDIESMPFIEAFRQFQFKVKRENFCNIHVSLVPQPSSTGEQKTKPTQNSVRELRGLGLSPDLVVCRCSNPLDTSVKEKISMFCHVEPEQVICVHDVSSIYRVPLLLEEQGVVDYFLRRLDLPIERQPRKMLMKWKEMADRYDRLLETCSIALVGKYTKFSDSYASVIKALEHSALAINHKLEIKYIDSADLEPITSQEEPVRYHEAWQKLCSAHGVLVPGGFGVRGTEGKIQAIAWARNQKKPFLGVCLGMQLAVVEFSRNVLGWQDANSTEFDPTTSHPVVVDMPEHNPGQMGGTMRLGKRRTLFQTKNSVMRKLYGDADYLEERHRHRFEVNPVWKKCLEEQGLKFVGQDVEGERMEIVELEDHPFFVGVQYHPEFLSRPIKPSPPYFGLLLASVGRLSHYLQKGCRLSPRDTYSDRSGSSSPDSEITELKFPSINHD
Description: Covalent labeling of FLAG-CTPS1 in 293T cells, in-gel fluorescence imaging. The format is binding. To be noted: FLAG-CTPS1 expressing 293T cells, 2 h.

Data set [4] relates to SARS-CoV-2. Description: SARS-CoV-2 infection of K18-hACE2 transgenic mice. The class given is in vivo, mouse. To be noted: 50 mg/kg daily intraperitoneal, 3 dpi. How it is done:
K18-hACE2 transgenic mice were intraperitoneally administered with compound 10 at a dose of 50 mg/kg and vehicle 1 day before infection with 1 × 10^4 PFU of SARS-CoV-2. Body weight and compound administration were monitored daily. Mice were humanely euthanized at 3 dpi, and the lung tissues were harvested for viral titration, real-time PCR, and pathological analysis.
K18-ACE2 transgenic mice were euthanized on day 3 after SARS-CoV-2 infection. Fresh lung pieces were fixed with 10% formalin for 24 h. The post-caval lobes of the […] were sent to the histology lab in USC of the School of Pharmacy Core Facilities for processing and hematoxylin and eosin (H&E) staining. In brief, tissues were dehydrated and embedded in paraffin. Paraffin-embedded tissue blocks were sectioned with 5 µm thickness. Sections were processed by H&E staining and imaged by ZEISS Axio Scope.A1 microscope (Zeiss) and analyzed by ZEISS ZEN Blue software.
Immunofluorescence staining was performed on the middle lobes of the […] fixed with 10% formalin. Tissues were embedded in optimal cutting temperature (OCT) compound and frozen immediately at −80°C. Subsequently, the frozen tissues were cut into 8 µm sections using a cryostat-microtome. Sections were blocked with 10% normal goat serum diluted in PBST for 1 h and incubated with primary antibodies diluted in 10% normal goat serum overnight at 4°C. After washing with PBST, sections were incubated with species-matched secondary antibodies for 30 min at room temperature. Then tissue sections were washed with PBST, mounted with VectaMount Mounting Medium (Vector Laboratories), and analyzed by a confocal microscope (Nikon).

The subject of data set [5] is SARS-CoV-2. Description: SARS-CoV-2 infection of AAV-hACE2-transduced C57BL/6 J mice. As to conditions: 35 mg/kg daily intraperitoneal, 4 dpi.
Data set [6] can be described thus: Cytotoxicity, XTT assay, uninfected Caco-2 cells. The format is cell-based, human. As to conditions: human, uninfected Caco-2 cells, uninfected Caco-2, XTT assay, read-out: CC50, cell viability. Here is the method: as §3
The test system of data set [7] is SARS-CoV-2. The data set is described as follows: SARS-CoV-2 replication in NHBE cells, viral titer in the medium by plaque assay. The class given is cell-based. As to conditions: Severe acute respiratory syndrome coronavirus 2, NHBE, 48 h. Here is the method: as §1, §2
Caco-2, NHBE, Calu-3, and Vero E6-hACE2 cells were pre-treated with compound 1, 6, or 10 and infected with SARS-CoV-2 (MOI = 0.1 for Caco-2, NHBE, and Calu-3; MOI = 0.001 for Vero E6-hACE2). […] Viral titer in the medium was determined by plaque assay. […] Cytotoxicity was determined with an XTT assay kit (Roche), according to the manufacturer’s instructions. […] IC50, IC90, and CC50 were calculated with GraphPad Prism software.

The nature of data set [8]: Cytotoxicity, XTT assay, uninfected NHBE cells. The format is cell-based. To be noted: human, read-out: CC50, cell viability. Here is the method: as §3
Data set [9] concerns the target CTPS1 (Homo sapiens, UniProt P17812). The data set is described as follows: CTPS1 enzymatic activity assay (UTP to CTP conversion, mass spectrometry). The class given is biochemical. To be noted: read-out: inhibition of CTP synthesis compared with DMSO.
Data set [10] deals with SARS-CoV-2. Description: SARS-CoV-2 RNA abundance in infected Caco-2 cells, real-time PCR. The format is cell-based. As to conditions: MOI = 0.1, 72 h.
A further data set has as its system NF-κB. The data set is described as follows: NF-κB activation by Sendai virus, luciferase reporter assay in 293T cells. The format is cell-based, human. As to conditions: SeV infection. Here is the method: as §4
Another data set has as its system IFNB1, ISG56, CCL5, Mx1. Description: Antiviral gene expression in SARS-CoV-2-infected Caco-2 cells, real-time PCR. As to conditions: Caco-2, 2 µM and 6 µM, MOI = 0.1, 48 h. The format is cell-based, human. A general note: Real-time PCR tracks product formation cycle by cycle.
In the next data set the test system is IFNB1. Description: Antiviral gene expression in 293T cells infected with Sendai virus, real-time PCR.
A further data set deals with CTP synthesis. The data set is described as follows: Intracellular CTP/CDP synthesis, [amide-15N]glutamine tracing and mass spectrometry.

The results in this text go back to article PMC12153265 (mBio, 2025).

SMILES strings stand for the structures.

On to `COc1ccccc1NC(=O)c1cccc(NC(=O)CCl)c1` [Compound 6], for which, in the data set with SARS-CoV-2 [1], the “antiviral activity in SARS-CoV-2 infection compared with compound 1” value is listed as “more robust antiviral activity” and the IC50 was found to be 140 nM. The CC50 with Caco-2 cells came to 2.82 µM. In the data set with SARS-CoV-2 [2], the “CC50 value relative to IC50 value” is given as “IC50 values as high as their CC50 values”. Further, in the data set with IFN-β promoter, the “IFN induction compared with compound 1, reporter assay” value is given as “better effect on IFN induction than compound 1”.

As for `C#CCOc1cccc(NC(=O)c2cccc(NC(=O)CCl)c2)c1` [Compound 2], the “covalent labeling of CTPS1” value on CTPS1 [3] is recorded as “covalently labeled CTPS1 in a dose-dependent manner”.

For `CCCCCNC(=O)c1cccc(NC(=O)CCl)c1` [Compound 10], in the data set on SARS-CoV-2 [1], the “antiviral activity in SARS-CoV-2 infection compared with compound 1” value is “more robust antiviral activity” and the IC50 is 110 nM. Further, the CC50 in the data set on Caco-2 cells amounted to 6.17 µM. In addition, the “CC50 value relative to IC50 value” in the data set with SARS-CoV-2 [2] amounted to 10 fold. For the same compound, in the data set on SARS-CoV-2 [4], the “lung pathology, H&E staining (inflammatory infiltration)” value was “weak and isolated infiltration of immune cells”; the “viral N protein in the lung, immunofluorescence staining” value is reported as “lower expression of viral protein”. For the same compound, in the data set with SARS-CoV-2 [4] (vs vehicle), the “immune gene expression in the lung” value is given as “elevated” and the “viral RNA abundance in the lung” value is “reduced”. Besides, the “viral titer in the lung” value in the data set with SARS-CoV-2 [4] (vs vehicle, plaque assay) was “reduced”. Moreover, the “IFN induction compared with compound 1, reporter assay” value in the data set with IFN-β promoter is “better effect on IFN induction than compound 1”. Further, the “viral titer in the lung” value in the data set on SARS-CoV-2 [5] (plaque assay) was “decreased”. Also, the “expression of cellular antiviral genes (Ifnb1, Isg15, Isg56, Mx1) in the lung” value with SARS-CoV-2 [5] (real-time PCR) is on record as “elevated”.

As for `COc1cccc(NC(=O)c2cccc(NC(=O)CCl)c2)c1` [Compound 1], the “reduction of viral yield” value with SARS-CoV-2 [1] (Caco-2, 2 µM) is recorded as ~ 10 fold; in the data set with SARS-CoV-2 [1] (Caco-2, 6 µM) it was ~50 fold. Besides, the IC90 worked out at 1560 nM in the data set with SARS-CoV-2 [1] (Severe acute respiratory syndrome coronavirus 2, Caco-2, 72 h, read-out: IC90, inhibition of SARS-CoV-2 replication) and 8.7 µM in the data set on SARS-CoV-2 [7] (read-out: IC90, inhibition of SARS-CoV-2 replication). The IC50 in the data set on SARS-CoV-2 [1] (Severe acute respiratory syndrome coronavirus 2) was determined as 170 nM; with SARS-CoV-2 [7] (read-out: IC50, inhibition of SARS-CoV-2 replication), 970 nM. The CC50 at 72 h in data set [6] worked out at 2420 nM. In addition, in [8], the CC50 at 48 h turned out to be 3.75 µM. On CTPS1 [9], the inhibition at 10 µM was in the range of 55 to 83%. Besides, the “reduction of viral RNA abundance (Nsp1, N, E)” value in the data set on SARS-CoV-2 [10] (Caco-2, 2 µM) is given as > 50%; in the data set on SARS-CoV-2 [10] (Caco-2, 6 µM), ~ 75%. Further, the “CC50 value relative to IC50 value” with SARS-CoV-2 [2] is on record as “IC50 values as high as their CC50 values”. In addition, the “IFN induction, luciferase reporter” value in the data set on IFN-β promoter (CTPS1-depleted 293T cells) is “failed to do so”; with IFN-β promoter (control 293T cells), “elevated IFN induction”. In the data set on NF-κB, the “NF-κB activation, luciferase reporter” value is “no effect”. Besides, the “expression of antiviral genes (IFNB1, ISG56, CCL5, Mx1)” value in the data set with IFNB1, ISG56, CCL5, Mx1 is given as “elevated”. Further, in the data set with IFNB1 (293T cells infected with Sendai virus), the IFNB1 expression entry was “increased IFNB1 expression in a dose-dependent manner”. Moreover, the “expression of IFNB1 and ISG56 inhibited by Nsp8 and ORF8” value in the data set on IFNB1 (293T cells transfected with Nsp8 or ORF8, SeV infection, 6 h) is “significantly restored”. In addition, the “intracellular concentration of [amide-15N]CTP and [amide-15N]CDP” value in the data set on CTP synthesis (Caco-2 cells infected with SARS-CoV-2) is reported as “potently diminished”. In the data set on CTP synthesis (Caco-2 cells stably expressing ORF8), the “[amide-15N]CTP and [amide-15N]CDP” value is reported as “diminished”.

Broadly, the IC50 is the concentration needed to halve the response being measured. Broadly, the CC50 is the concentration at which the toxic effect on the cells reaches its halfway point. As usually defined, the IC90 is the point of the concentration-response curve where the effect stands at 90%. For orientation: inhibition means the relative decrease from the control value, in per cent.
